Test results from patent US20040132817A1, “Use of an histone deacetylase inhibitor for the treatment of diseases associated with an hpv infection” (priority 2001, published 2004).

Columns and labels:
pRb = test: Western blot of pRb in HeLa cells; assay type: cell-based, human; settings: 16 hours
Experimental: (B and C) Western blot analysis. 50 μg of protein were separated in 8% (for pRb) and 12% SDS-PAGE gels. After electrotransfer, the filters were incubated with pRb, E2F-1 (B) and (C) p53 specific antibodies. Equal protein loading was confirmed with a monoclonal actin antibody.
(§1) Cellular extracts were separated in 8-12% SDS PAGE gels and electrotransferred as described elsewhere (Finzer et al., Oncogene 19 (2000), 3235-3244; Soto et al., Oncogene 18 (1999), 3187-3198). The following antibodies were used: cyclin E (HE 12), cyclin D 1 (HD 11), cdk2 (M2), (D-12; Santa Cruz Biotechnology, Inc., Santa Cruz, USA), cdk4 (C-22), cdk6 (C-21), p27^KIP1 (C-19), (K25020), p45^SKP2 (N-19), HPV18-E7 (N-19) and E2F-1 (KH95) (Santa Cruz Biotechnology, Inc. Santa Cruz, USA), p21^CIP1 (C24420; Transduction Laboratories, Lexington, USA), pRB (NCL-RB; Novocastra, UK), p16^INK4 (15126E, Pharmingen, San Diego, USA) and HPV 16 E7 (ZYMED Lab. Inc., San Francisco, USA). Cyclin A was kindly provided by M. Pagano (Pagano et al., EMBO J. 11 (1992), 961-971). Equal protein transfer and loading was routinely checked by incubating the filters with a monoclonal actin antibody (ICN Biomedicals, Ohio, USA).
Western blot analysis: 50 μg of protein was separated in 8% (for pRb) and 12% SDS-PAGE gels. After electrotransfer, the filters were incubated with pRb, E2F-1 (f) and (g) p53 specific antibodies. […]

cyclin A = test: Western blot of cyclin A in HeLa cells; assay type: cell-based, human; settings: 16 hours
Experimental: 50 μg of protein were separated on 12% SDS-PAGE minigels. After electrotransfer, the filters were incubated with antibodies against cyclin D1, cyclin E, cyclin A or cdk2, cdk4 or cdk6 specific antibodies. Equal protein loading was confirmed by reincubating the filters with a monoclonal actin antibody.
as §1
50 μg of protein was separated on 12% SDS-PAGE minigels. […]

[1] = system: HPV16 E6/E7 transcription; test: Northern blot of HPV16 transcription in "1321" keratinocytes; assay type: cell-based
Experimental: Keratinocytes immortalized with HPV16 E6/E7 either under control of (A) the homologues viral upstream regulatory region (,1637″) or (B) of the β-actin promoter (,1321″) were incubated with NaB for various periods of time. 5 μg of RNA was separated in 1% agarose gels. The filters were hybridized with probes specific for HPV16, p21^CIP1 (=p21), β-actin and GAPDH. The positions of the 28S and 18S ribosomal RNA are indicated. (Contr.): untreated cells.
(A) 5 μg of RNA was separated in 1% agarose gels. The filters were hybridized with HPV 16, p21^CIP1 (=) p21 and GAPDH-specific probes. The positions of the 28S and 18S ribosomal RNA are indicated.
Total cellular RNA was extracted according to the guanidinium-thiocyanate procedure (Chomczynski and Sacchi, Anal. Biochem. 162 (1987), 156-159). Approximately 5 μg RNA were separated on 1% agarose gels in the presence of ethidium bromide under non-denaturing conditions and transferred to GeneScreen Plus membranes (DuPont, Bad Homburg, Deutschland). The filters were hybridized under stringent conditions with specific probes, which were labeled with ^32p-dCTP by random priming (Feinberg and Vogelstein, Anal. Biochem. 137 (1984), 266-267).

cdk2 = test: Histone H1 kinase assay of cdk2 complexes immunoprecipitated from HeLa cells; assay type: cell-based, human; settings: for cdk2 kinase activity (histone H1): 16 hours; for cdk2 kinase activity, time course: 6 mM sodium butyrate, 3, 6, 9, 12 and 16 hours
Text: (A) Autoradiography. Cdk2 complexes were immunoprecipitated from HeLa cells and assayed for their activity using histone H1 as substrate. (“[…]”: preimmune serum).
(B) Cdk2 activity after NaB application. Upper panel: Cdk 2 complexes were immunoprecipitated and assayed for their activity using histone H1 as substrate. Lower panels: Western blot analysis of the cdk 2 complexes which were precipitated, separated in a 12% SDS-PAGE gel and immunoblotted with specific antibodies used in panel A. Loading was verified by incubation with cdk 2 antibodies.
For cell fractionation, cell monolayers were washed twice with PBS and harvested by trypsinisation. Cell extract preparation and cdk2 activity assays were exactly done as described by Blomberg and Hoffmann, Mol. Cell. Biol. 19 (1999), 6183-6194. In addition, cdk2 was immunoprecipitated and analyzed by immunoblotting. Beads used for cdk2 kinase assay were washed 3 times with lysis buffer (Blomberg and Hoffmann, 1999), incubated with Laemmli sample buffer and boiled for 5 min. Supernatant was analyzed by SDS-PAGE gels. Immunoblotting was carried out with the following antibodies: p21^CIP1 (C24420) and p27^KIP1 (K25020; Transduction Laboratories) or HPV18-E7 (N-19; Santa Cruz, Inc.). Cdk2 specific antibodies or preimmune serum were kindly provided by I. Hoffmann (DKFZ, Heidelberg).
Autoradiography. Cdk2 complexes were immunoprecipitated from HeLa cells and assayed for their activity using histone H1 as substrate. (“PI”: preimmune serum).
Autoradiography. Cdk2 complexes were immunoprecipitated from HeLa cells and assayed for their activity as in (c). […] (Contr.): untreated cells harvested after 3, 6, 9, 12, and 16 hours.

Row | SMILES | pRb protein level (pRb; 330 nM trichostatin A) | cyclin A protein level (cyclin A; 330 nM trichostatin A) | divergent HPV16 regulation in "1637" and "1321" cells ([1]; TSA (data not shown)) | cdk2 kinase activity (histone H1) (cdk2; 330 nM trichostatin A) | pRb protein level (pRb; 6 mM sodium butyrate) | cyclin A protein level (cyclin A; 6 mM sodium butyrate) | HPV16 transcription, time course ([1]; "1321" cells, NaB, induced three hours after treatment) | HPV mRNA after longer incubation ([1]; NaB, 16 hours) | cdk2 kinase activity, time course (cdk2) | cdk2 kinase activity, time course (cdk2; listed as NaB) | cdk2 kinase activity (histone H1) (cdk2; 6 mM sodium butyrate, vs untreated control)
1 | CC(/C=C/C(=O)NO)=C\[C@@H](C)C(=O)c1ccc(N(C)C)cc1 [trichostatin A] | Mediates pRB Degradation | Downregulates | Analogous results | Suppresses |  |  |  |  |  |  | 
2 | CCCC(=O)[O-].[Na+] [sodium butyrate] |  |  |  |  | totally degraded | selectively downregulates | strong upregulation | declined to basal levels | still active after 9 hours, but abruptly declined 3 hours later | remained active up to 9 hours, but immediately declined between 12-16 hours | completely abolished
